Laboratory results taken from patent US20070105865A1, “Substituted bicyclic quinazolin-4-ylamine derivatives” (Neurogen Corporation, priority 2003, published 2007).
Counter-ions that a name gives are not always drawn.

Target: T1, human capsaicin receptor (Homo sapiens, UniProt Q8NER1)
T1 construct: transfected with the pBK-CMV expression construct encoding the full length human capsaicin receptor using standard methods; expressed in transfected cells
Assay: Calcium mobilization assay (Example 6)
Type: cell-based
Conditions: determined as described in Example 6; cells expressing human capsaicin receptor, capsaicin response
Description: Human embryonic kidney (HEK293) cells were transfected with the pBK-CMV expression construct encoding the full length human capsaicin receptor using standard methods. The transfected cells were selected for two weeks in media containing G418 (400 μg/ml) to obtain a pool of stably transfected cells. Independent clones were isolated from this pool by limiting dilution to obtain clonal stable cell lines for use in subsequent experiments.
This Example illustrates a representative calcium mobilization assay for use in monitoring the response of cells expressing capsaicin receptor to capsaicin and other vanilloid ligands of the capsaicin receptor, as well as for evaluating test compounds for agonist and antagonist activity.
Cells transfected with expression plasmids (as described in Example 4) and thereby expressing human capsaicin receptor are seeded and grown to 70-90% confluency in FALCON black-walled, clear-bottomed 96-well plates (#3904, BECTON-DICKINSON, Franklin Lakes, N.J.). The culture medium is emptied from the 96 well plates and FLUO-3 AM calcium sensitive dye (Molecular Probes, Eugene, Oreg.) is added to each well (dye solution: 1 mg FLUO-3 AM, 440 μL DMSO and 440 μl 20% pluronic acid in DMSO, diluted 1:250 in Krebs-Ringer HEPES (KRH) buffer (25 mM HEPES, 5 mM KCl, 0.96 mM NaH2PO4, 1 mM MgSO4, 2 mM CaCl2, 5 mM glucose, 1 mM probenecid, pH 7.4), 50 μl diluted solution per well). Plates are covered with aluminum foil and incubated at 37° C. for 1-2 hours in an environment containing 5% CO2. After the incubation, the dye is emptied from the plates, and the cells are washed once with KRH buffer, and resuspended in KRH buffer.
Agonist (e.g., olvanil, capsaicin or RTX)-induced calcium mobilization is monitored using either FLUOROSKAN ASCENT (Labsystems, Franklin, Mass.) or FLIPR (fluorometric imaging plate reader system, Molecular Devices, Sunnyvale, Calif.) instruments. Varying concentrations of the antagonists ruthenium red or capsazepine (RBI; Natick, Mass.) are added to cells concurrently with agonist (e.g., 25-50 nM capsaicin). For agonist-induced calcium responses, data obtained between 30 and 60 seconds after agonist application are used to generate the IC50 values. KALEIDAGRAPH software (Synergy Software, Reading, Pa.) is used to fit the data to the equation: y=a*(1/(1+(b/x)^c)) to determine the IC50 for the response. In this equation, y is the maximum fluorescence signal, x is the concentration of the agonist or antagonist, a is the Emax, b corresponds to the IC50 value and c is the Hill coefficient.
To measure the ability of a test compound to antagonize (inhibit) the response of cells expressing capsaicin receptors to capsaicin or other vanilloid agonist, the IC50 of capsaicin is first determined. An additional 20 μl of KRH buffer and 1 μl DMSO is added to each well of cells, prepared as described above. 100 μl capsaicin in KRH buffer is automatically transferred by the FLIPR instrument to each well. An 8-point concentration response curve, with final capsaicin concentrations of 1 nM to 3 μM, is used to determine capsaicin IC50.
Test compounds are dissolved in DMSO, diluted in 20 μl KRH buffer so that the final concentration of test compounds in the assay well is between 1 μM and 5 μM, and added to cells prepared as described above. The 96 well plates containing prepared cells and test compounds are incubated in the dark, at room temperature for 0.5 to 6 hours. It is important that the incubation not continue beyond 6 hours. Just prior to determining the fluorescence response, 100 μl capsaicin in KRH buffer at twice the IC50 concentration determined from the concentration response curve is automatically added by the FLIPR instrument to each well of the 96 well plate for a final sample volume of 200 μl and a final capsaicin concentration equal to the IC50. The final concentration of test compounds in the assay wells is between 1 μM and 5 μM. […]

T1 sequence (Q8NER1 whole entry): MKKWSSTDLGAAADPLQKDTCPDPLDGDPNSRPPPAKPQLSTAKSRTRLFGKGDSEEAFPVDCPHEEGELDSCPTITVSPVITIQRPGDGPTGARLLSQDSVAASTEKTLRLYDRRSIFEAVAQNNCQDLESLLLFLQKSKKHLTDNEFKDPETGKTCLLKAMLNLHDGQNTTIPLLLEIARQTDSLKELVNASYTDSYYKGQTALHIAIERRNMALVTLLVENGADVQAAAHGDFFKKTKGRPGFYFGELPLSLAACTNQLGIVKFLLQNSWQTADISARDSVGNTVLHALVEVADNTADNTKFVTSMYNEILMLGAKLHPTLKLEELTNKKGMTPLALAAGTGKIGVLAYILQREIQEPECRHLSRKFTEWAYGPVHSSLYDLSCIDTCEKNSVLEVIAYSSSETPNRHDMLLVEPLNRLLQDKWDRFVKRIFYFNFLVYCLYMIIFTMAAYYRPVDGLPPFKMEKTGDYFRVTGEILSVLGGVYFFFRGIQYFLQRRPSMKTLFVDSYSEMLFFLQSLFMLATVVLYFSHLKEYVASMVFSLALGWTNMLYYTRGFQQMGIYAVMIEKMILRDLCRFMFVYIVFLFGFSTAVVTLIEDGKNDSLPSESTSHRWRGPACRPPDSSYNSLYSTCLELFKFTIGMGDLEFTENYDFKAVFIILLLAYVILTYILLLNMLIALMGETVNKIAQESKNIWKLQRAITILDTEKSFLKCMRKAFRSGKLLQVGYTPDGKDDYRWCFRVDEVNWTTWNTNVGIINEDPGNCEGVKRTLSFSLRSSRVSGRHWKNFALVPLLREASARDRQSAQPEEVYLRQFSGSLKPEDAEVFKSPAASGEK

CCOCc1nc(Nc2ccc3c(c2)N(C)CCO3)c2ccc(-c3ncccc3Cl)nc2n1 [Compound 6]
IC50: < 1000 nM

CN1Cc2cc(Nc3ncnc4cc(-c5ncccc5Cl)cnc34)ccc2C(C)(C)C1 [Compound 9, [7-(3-Chloro-pyridin-2-yl)-pyrido[3,2-d]pyrimidin-4-yl]-(2,4,4-trimethyl-1,2,3,4-tetrahydro-isoquinolin-7-yl)-amine hydrochloride]
IC50: < 1000 nM

CC(C)COCc1nc(Nc2ccc3c(c2)NCCC3(C)C)c2ccc(-c3ncccc3C(F)(F)F)nc2n1 [Compound 4, (4,4-Dimethyl-1,2,3,4-tetrahydro-quinolin-7-yl)-[2-isobutoxymethyl-7-(3-trifluoromethyl-pyridin-2-yl)pyrido[2,3-d]pyrimidin-4-yl]-amine hydrochloride]
IC50: < 1000 nM

CCOCc1nc(Nc2ccc3c(c2)N(C(C)=O)CC3(C)C)c2ccc(-c3ncccc3C)nc2n1 [Compound 7, 1-{6-[2-Ethoxymethyl-7-(3-methyl-pyridin-2-yl)-pyrido[2,3-d]pyrimidin-4-ylamino]-3,3-dimethyl-2,3-dihydro-indol-1-yl}-ethanone]
IC50: < 1000 nM

CN1Cc2cc(Nc3ncnc4cc(-c5ncccc5C(F)(F)F)ccc34)ccc2C(C)(C)C1 [Compound 3, [7-(3-Trifluoromethyl-pyridin-2-yl)-quinazolin-4-yl]-(2,4,4-trimethyl-1,2,3,4-tetrahydro-isoquinolin-7-yl)-amine hydrochloride]
IC50: < 1000 nM

COCc1cc(Nc2ccc3c(c2)NCCC3(C)C)c2ccc(-c3ncccc3C(F)(F)F)nc2n1 [Compound 10]
IC50: < 1000 nM

CC(C)COCc1nc(Nc2ccc3c(c2)N(C)CC3(C)C)c2ccc(-c3ncccc3Cl)nc2n1 [Compound 8, [7-(3-Chloro-pyridin-2-yl)-2-isobutoxymethyl-pyrido[2,3-d]pyrimidin-4-yl]-(1,3,3-trimethyl-2,3-dihydro-1H-indol-6-yl)-amine]
IC50: < 1000 nM

COCc1nc(Nc2ccc3c(c2)NCCC3)c2ccc(-c3ncccc3C(F)(F)F)nc2n1 [Compound 5, [2-Methoxymethyl-7-(3-trifluorometyl-pyridin-2-yl)-pyrido[2,3-d]pyrimidin-4-yl]-(1,2,3,4-tetrahydro-quinolin-7-yl)-amine]
IC50: < 1000 nM

COCc1nc(Nc2ccc3c(c2)N(C)CCC3)c2ccc(-c3ncccc3Cl)nc2n1 [Compound 1, [7-(3-Chloro-pyridin-2-yl)-2-methoxymethyl-pyrido[2,3-d]pyrimidin-4-yl]-(1-methyl-1,2,3,4-tetrahydro-quinolin-7-yl)-amine]
IC50: < 1000 nM
